Test results reported in PMC11188305, “Reproductive and fetal toxicity studies of histamine H3 receptor antagonist DL76 used in mice to prevent maximal electroshock-induced seizure” (Frontiers in Pharmacology, 2024).

Tested on: C57/B6 mouse embryos
Experiment: Reproductive studies: maternal, fetal and gross/visceral malformation observations after treatment on GD-8 or GD-13
Format: in vivo
Settings: for Number of female embryos / Number of male embryos: number (percentage); for Exomphalos / Eye open / Kinky tail / Left/right kidney hypo/descended / Mandible hypoplasia / Maxilla hypoplasia / Microtia/low set microtia / Undescended testis: number of embryos (percentage); for Live fetus/litter / Resorption/litter: parentheses contain percentages; for Placental weight, IUGR −2SD: fraction (percentage); for Fetal weight, IUGR −1SD / Fetal weight, IUGR −2SD: fraction of fetuses (percentage)
Procedure: Reproductive studies were conducted in adult female mice, averaging 30 gm in weight and 6 weeks in age ([Padmanabhan et al., 2006]; [Bastaki et al., 2018]). Following successful mating, indicated by vaginal plug observation, the plug-positive day was considered gestation day 0 (GD-0). DL76 was administered at various doses (7.5 mg/kg, 15 mg/kg, 30 mg/kg, and 60 mg/kg) through single i.p. injections and three 15 mg/kg injections in 1 day to mouse groups on GD-8 and GD-13 (Tables 1, 2). The control group was injected with normal saline. Appropriate formation of different organs occurs in specific periods of the development of the mouse. These two periods were selected because GD-8 is known to be a critical period for the induction of neural tube defects, craniofacial malformations, and the development of other organs, whereas on GD-13, the retina and other parts are being formed, and most other organs have been formed. The number of implantations, fetal deaths, and resorptions was recorded. Fetal and placental weights were documented separately. After blotting dry, the fetuses were weighed and fixed in 95% ethanol. The reproductive toxicological effects of DL76 were assessed by observing gross and visceral malformations, following [Sterz and Lehmann (1985)], [Abdulrazzaq et al. (1997)], [Padmanabhan et al. (2003)], and [Padmanabhan et al. (2006)].
Deformities of the embryos were identified according to a modified method of [Sterz and Lehmann (1985)], [Abdulrazzaq et al. (1997)], and [Bass et al. (2020)]. Accordingly, the embryos were removed from the 95% ethanol, and the lower part of the abdomen was cut using a razor blade. All organs were checked for abnormalities with a stereo dissecting microscope, and finally, the organs were removed by using forceps.
Statistical analyses employed SPSS 26.0 (IBM Middle East, Dubai, UAE). Data were presented as means ± SEM. […] Fetal abnormality data were presented as counts and percentages. Fisher’s exact test compared the percentages of abnormalities between the control group (saline) and the different dose groups. All tests were two-tailed, and significance was set at p < 0.05.

CC(C)(C)c1ccc(OCCCN2CCCCC2)cc1 [DL76, 1-(3-(4-tert-butyl-phenoxy)propyl) piperidine]
Number of female embryos (30 mg/kg i.p. on GD-13): 24 (55.8)
Number of male embryos (30 mg/kg i.p. on GD-13): 19 (44.2)
Exomphalos (30 mg/kg i.p. on GD-13): 1 (2.3)
Eye open (30 mg/kg i.p. on GD-13): 0
Kinky tail (30 mg/kg i.p. on GD-13): 0
Left/right kidney hypo/descended (30 mg/kg i.p. on GD-13): 1 (2.3)
Mandible hypoplasia (30 mg/kg i.p. on GD-13): 3 (7.0)
Maxilla hypoplasia (30 mg/kg i.p. on GD-13): 2 (4.7)
Microtia/low set microtia (30 mg/kg i.p. on GD-13): 1 (2.3)
Undescended testis (30 mg/kg i.p. on GD-13): 0
Live fetus/litter (30 mg/kg i.p. on GD-13): 6.143 (87.76)
Resorption/litter (30 mg/kg i.p. on GD-13): .857 (12.24)
Fetal weight/Litter (g) (Mean ± SD) (60 mg/kg i.p. on GD-8): 1.048 ± .0156 g
Fetuses/litter (60 mg/kg i.p. on GD-8): 7.286 ± 1.380
Placental weight/Litter (g) (mean ± SD) (60 mg/kg i.p. on GD-8): 0.101 ± 0.010 g
Placental weight, IUGR −2SD (60 mg/kg i.p. on GD-8): 0
Fetal weight, IUGR −1SD (60 mg/kg i.p. on GD-8): 0
Number of female embryos (60 mg/kg i.p. on GD-8): 21 (45.7)
Number of male embryos (60 mg/kg i.p. on GD-8): 25 (54.3)
Exomphalos (60 mg/kg i.p. on GD-8): 0
Eye open (60 mg/kg i.p. on GD-8): 1 (2.2)
Kinky tail (60 mg/kg i.p. on GD-8): 0
Left/right kidney hypo/descended (60 mg/kg i.p. on GD-8): 2 (4.3)
Mandible hypoplasia (60 mg/kg i.p. on GD-8): 4 (8.7)
Maxilla hypoplasia (60 mg/kg i.p. on GD-8): 2 (4.3)
Microtia/low set microtia (60 mg/kg i.p. on GD-8): 2 (4.3)
Undescended testis (60 mg/kg i.p. on GD-8): 0
Live fetus/litter (60 mg/kg i.p. on GD-8): 6.571 (90.20)
Resorption/litter (60 mg/kg i.p. on GD-8): 0.714 (9.80)
Fetal weight Litter (g) (Mean ± SD) (60 mg/kg i.p. on GD-13): 1.051 ± 0.122 g
Fetuses/litter (60 mg/kg i.p. on GD-13): 7.000 ± 1.414
Placental weight/Litter (g) (mean ± SD) (60 mg/kg i.p. on GD-13): 0.097 ± 0.010 g
Fetal weight, IUGR −1SD (60 mg/kg i.p. on GD-13): 0
Fetal weight, IUGR −2SD (60 mg/kg i.p. on GD-13): 0
Number of female embryos (60 mg/kg i.p. on GD-13): 17 (53.1)
Number of male embryos (60 mg/kg i.p. on GD-13): 15 (46.9)
Exomphalos (60 mg/kg i.p. on GD-13): 0
Eye open (60 mg/kg i.p. on GD-13): 2 (6.3)
Kinky tail (60 mg/kg i.p. on GD-13): 0
Left/right kidney hypo/descended (60 mg/kg i.p. on GD-13): 2 (6.3)
Mandible hypoplasia (60 mg/kg i.p. on GD-13): 2 (6.3)
Maxilla hypoplasia (60 mg/kg i.p. on GD-13): 2 (6.3)
Microtia/low set microtia (60 mg/kg i.p. on GD-13): 2 (6.3)
Undescended testis (60 mg/kg i.p. on GD-13): 2 (6.3)
Live fetus/litter (60 mg/kg i.p. on GD-13): 5.333 (76.19)
Resorption/litter (60 mg/kg i.p. on GD-13): 1.667 (23.81)
Fetal weight/Litter (g) (Mean ± SD) (3 × 15-dose i.p. on GD-8): 1.037 ± 0.101 g
Fetuses/litter (3 × 15-dose i.p. on GD-8): 8.143 ± 0.690
Placental weight/Litter (g) (mean ± SD) (3 × 15-dose i.p. on GD-8): 0.092 ± 0.007 g
Placental weight, IUGR −2SD (3 × 15-dose i.p. on GD-8): 0
Fetal weight, IUGR −2SD (3 × 15-dose i.p. on GD-8): 0
Number of female embryos (3 × 15-dose i.p. on GD-8): 24 (51.1)
Number of male embryos (3 × 15-dose i.p. on GD-8): 23 (48.9)
Exomphalos (3 × 15-dose i.p. on GD-8): 0
Eye open (3 × 15-dose i.p. on GD-8): 4 (8.5)
Kinky tail (3 × 15-dose i.p. on GD-8): 0
Left/right kidney hypo/descended (3 × 15-dose i.p. on GD-8): 2 (4.3)
Mandible hypoplasia (3 × 15-dose i.p. on GD-8): 3 (6.4)
Maxilla hypoplasia (3 × 15-dose i.p. on GD-8): 2 (4.3)
Microtia/low set microtia (3 × 15-dose i.p. on GD-8): 2 (4.3)
Undescended testis (3 × 15-dose i.p. on GD-8): 1 (2.1)
Live fetus/litter (3 × 15-dose i.p. on GD-8): 6.714 (82.46)
Resorption/litter (3 × 15-dose i.p. on GD-8): 1.429 (17.54)
Fetal weight Litter (g) (Mean ± SD) (3 × 15-dose i.p. on GD-13): 1.051 ± 0.031 g
Fetuses/litter (3 × 15-dose i.p. on GD-13): 8.286 ± 1.704
Placental weight/Litter (g) (mean ± SD) (3 × 15-dose i.p. on GD-13): 0.110 ± 0.012 g
Placental weight, IUGR −2SD (3 × 15-dose i.p. on GD-13): 0
Fetal weight, IUGR −1SD (3 × 15-dose i.p. on GD-13): 0
Fetal weight, IUGR −2SD (3 × 15-dose i.p. on GD-13): 0
Number of female embryos (3 × 15-dose i.p. on GD-13): 24 (50.0)
Number of male embryos (3 × 15-dose i.p. on GD-13): 24 (50.0)
Exomphalos (3 × 15-dose i.p. on GD-13): 1 (2.1)
Eye open (3 × 15-dose i.p. on GD-13): 6 (12.5)
Kinky tail (3 × 15-dose i.p. on GD-13): 1 (2.1)
Left/right kidney hypo/descended (3 × 15-dose i.p. on GD-13): 2 (4.2)
Mandible hypoplasia (3 × 15-dose i.p. on GD-13): 3 (6.3)
Maxilla hypoplasia (3 × 15-dose i.p. on GD-13): 3 (6.3)
Microtia/low set microtia (3 × 15-dose i.p. on GD-13): 3 (6.3)
Undescended testis (3 × 15-dose i.p. on GD-13): 0
Live fetus/litter (3 × 15-dose i.p. on GD-13): 6.857 (82.76)
Resorption/litter (3 × 15-dose i.p. on GD-13): 1.429 (17.24)
mean fetal weight in each litter, treatment groups vs controls (GD-8 and GD-13, all doses): not significantly different
mean placental weights, treated groups vs controls (GD-8 and GD-13, all doses): not significantly different
number of fetuses in each litter, between all study groups (GD-8 and GD-13, all doses): not significantly different
number of live fetuses, between all study groups (GD-8 and GD-13, all doses): not significantly different
resorption rate, between all the groups (GD-8 and GD-13, all doses): not significantly different
maternal toxicity (all groups, GD-8 and GD-13 treated animals): no sign of maternal toxicity
incidence of exencephaly and craniofacial malformations, exomphalos, microtia, open eye, palate, hydronephrosis, descended kidney, undescended testis, kinky tail (between any of the groups studied): no significant difference
average number of implantations and resorptions, control vs DL76-treated groups (early stages of gestation and organogenesis period): No significant alterations
maternal body weight vs control mice group (single 7.5, 15, 30 or 60 mg/kg i.p. or multiple doses 3 × 15 mg/kg i.p. on GD 8 or 13): failed to affect
incidence of gross morphological anomalies in treated fetuses vs control group (single- and multiple-dose groups given i.p.): not significantly different
